Test results: EP4741383A1, “COMPOUND AND USE THEREOF AS ANTI-CANCER DRUG” (Tyligand Bioscience (Shanghai) Limited, priority 2023, dated 2025)

Assays:
Type in all cases: in vitro ADME
[1] = biological target: T1, CYP2C8 (Homo sapiens, UniProt P10632); experiment: CYP450 inhibition in human liver microsomes, CYP2C8; conditions: pH 7.4, read-out: % CYP inhibition @ 10 µM 2C8
T1 construct: tissue Corning or Xenotech; host or cells: human liver microsomes
T1 sequence (P10632 1-490): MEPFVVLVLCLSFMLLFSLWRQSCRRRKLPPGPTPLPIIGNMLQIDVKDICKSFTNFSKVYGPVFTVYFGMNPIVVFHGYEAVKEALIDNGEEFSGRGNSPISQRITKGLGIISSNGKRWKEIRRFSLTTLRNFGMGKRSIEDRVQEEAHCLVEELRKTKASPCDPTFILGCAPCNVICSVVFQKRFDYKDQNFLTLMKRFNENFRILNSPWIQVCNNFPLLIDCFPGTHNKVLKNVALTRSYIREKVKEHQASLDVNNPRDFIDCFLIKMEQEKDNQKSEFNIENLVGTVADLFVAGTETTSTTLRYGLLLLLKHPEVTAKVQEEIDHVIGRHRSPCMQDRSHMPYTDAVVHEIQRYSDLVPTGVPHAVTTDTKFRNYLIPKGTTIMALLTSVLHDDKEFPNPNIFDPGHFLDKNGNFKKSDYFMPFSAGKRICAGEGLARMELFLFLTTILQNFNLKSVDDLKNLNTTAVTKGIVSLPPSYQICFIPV
Excerpt: (§1) According to standard methods in the field for the study of cytochrome P450 enzyme systems, such as the method described in Kerns, Edward H. and Di Li et al., Drug-like Properties: Concepts, Structure Design and Methods: from ADME to Toxicity Optimization (2008), San Diego, Academic Press, and Lin, Tong et al., In Vitro Assessment of Cytochrome P450 Inhibition: Strategies for Increasing LC/MS-Based Assay Throughput Using a One-Point IC50 Method and Multiplexing High-Performance Liquid Chromatography (J. Pharm. Sci. 2007, 96 (9), 2485). The inhibitory effect of the disclosed compounds on the cytochrome P450 enzyme system was similarly examined below.
(§2) Human liver microsomes were purchased from Corning or Xenotech. The test compounds were evaluated by detecting the metabolism of substrates for different Cyp450 isoforms by human liver microsomes.
(§3) 0.1 M potassium phosphate buffer (K-buffer, pH 7.4) was pre-warmed.
(§4) 100 mM K-buffer was prepared by mixing 9.5 mL of stock solution A (1 M potassium dihydrogen phosphate, prepared by dissolving 136.5 g of potassium dihydrogen phosphate in 1 L of Milli-Q water) with 40.5 mL of stock solution B (1 M potassium hydrogen phosphate, prepared by dissolving 174.2 g of potassium hydrogen phosphate in 1 L of Milli-Q water). The total volume was adjusted to 500 mL with Milli-Q water, and the buffer was titrated to pH 7.4 using KOH or H3PO4.
(§5) Test compound solution and specific inhibitor solution (400× dilution) were prepared in a 96-well plate. For the test compound, 8 µL of 10 mM test compound was transferred into 12 µL of ACN. For specific inhibitors of CYP1A2, CYP2C9, and CYP2D6: 12 µL of 1 mM α-naphthoflavone, 10 µL of 40 mM sulfaphenazole, 10 µL of 10 mM quinidine, and 8 µL of DMSO were mixed. For specific inhibitors of CYP3A4, CYP2B6, CYP2C8, and CYP2C19: 8 µL of DMSO stock solution was added to 12 µL of ACN.
(§6) A 4× diluted NADPH solution was prepared by dissolving 66.7 mg of NADPH in 10 mL of 0.1 M K-buffer (pH 7.4). […]

[2] = biological target: T2, CYP2C19 (Homo sapiens, UniProt P33261); experiment: CYP450 inhibition in human liver microsomes, CYP2C19; conditions: pH 7.4, read-out: % CYP inhibition @ 10 µM 2C19
T2 construct: tissue Corning or Xenotech; host or cells: human liver microsomes
T2 sequence (P33261 whole entry): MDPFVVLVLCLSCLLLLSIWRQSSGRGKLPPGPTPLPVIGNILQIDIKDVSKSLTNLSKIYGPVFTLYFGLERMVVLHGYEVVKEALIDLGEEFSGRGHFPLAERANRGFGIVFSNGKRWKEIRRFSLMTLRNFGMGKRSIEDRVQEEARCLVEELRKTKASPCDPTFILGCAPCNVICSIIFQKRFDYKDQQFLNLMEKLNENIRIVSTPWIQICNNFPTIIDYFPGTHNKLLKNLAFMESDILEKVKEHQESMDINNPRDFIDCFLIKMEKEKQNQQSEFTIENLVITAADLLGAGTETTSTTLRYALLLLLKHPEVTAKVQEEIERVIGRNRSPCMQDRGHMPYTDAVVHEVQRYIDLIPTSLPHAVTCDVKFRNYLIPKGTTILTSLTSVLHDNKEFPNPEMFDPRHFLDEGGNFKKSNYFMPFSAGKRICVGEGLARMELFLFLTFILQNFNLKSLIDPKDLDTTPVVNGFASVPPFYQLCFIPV
Excerpt: as §1, §2, §3, §4, §5, §6

[3] = biological target: T3, CYP2C9 (Homo sapiens, UniProt P11712); experiment: CYP450 inhibition in human liver microsomes, CYP2C9; conditions: pH 7.4, read-out: % CYP inhibition @ 10 µM 2C9
T3 construct: tissue Corning or Xenotech; host or cells: human liver microsomes
T3 sequence (P11712 whole entry): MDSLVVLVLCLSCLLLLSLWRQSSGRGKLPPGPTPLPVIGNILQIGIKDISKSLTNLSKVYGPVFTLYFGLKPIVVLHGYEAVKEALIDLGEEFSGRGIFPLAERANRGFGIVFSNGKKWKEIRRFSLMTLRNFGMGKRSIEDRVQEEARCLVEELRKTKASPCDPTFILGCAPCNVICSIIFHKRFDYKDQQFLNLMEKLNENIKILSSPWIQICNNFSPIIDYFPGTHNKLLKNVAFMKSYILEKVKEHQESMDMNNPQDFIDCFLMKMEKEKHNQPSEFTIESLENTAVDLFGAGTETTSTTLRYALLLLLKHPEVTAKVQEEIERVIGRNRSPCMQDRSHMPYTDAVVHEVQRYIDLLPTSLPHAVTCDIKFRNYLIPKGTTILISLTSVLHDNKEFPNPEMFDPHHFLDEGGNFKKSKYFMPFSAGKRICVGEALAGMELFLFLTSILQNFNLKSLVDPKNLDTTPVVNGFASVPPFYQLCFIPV
Excerpt: as §1, §2, §3, §4, §5, §6

| inhibition at 10 min, 10 µM [1] [%] | inhibition at 45 min, 10 µM [2] [%] | inhibition at 10 min, 10 µM [3] [%] | Structure (SMILES) |
| --- | --- | --- | --- |
| 43.8 | 1.78 | -3.32 | O=C(Nc1ccc(-c2cc3cc(F)c(-c4nnn[nH]4)cc3n2C2CCC2)cc1)C(=O)Nc1ccc(N2CCC(CO)CC2)cc1 [Example 23] |
| 39.2 | 13.9 | 7.84 | O=C(Nc1ccc(-c2cc3cc(F)c(-c4nnn[nH]4)cc3n2C2CCC2)cc1)C(=O)Nc1ccc(N2CCC3(CCOC3)CC2)cc1 [Example 67] |
| 42.1 | 13.5 | 6.51 | CC1(n2c(-c3ccc(NC(=O)C(=O)Nc4ccc(N5CCC6(CCOC6)CC5)cc4)cc3)cc3cc(F)c(-c4nnn[nH]4)cc32)CCC1 [Example 68] |
